Test results taken from patent US8030498B2, “Benzoylpyrazole compounds and herbicides containing them” (Ishihara Sangyo Kaisha, Ltd., priority 2005, dated 2011).

Legend:
barnyardgrass = test: Test Example 2: soil application on the day after sowing, growth inhibition rate, barnyardgrass; type: in vivo, Echinochloa crus-galli L.; conditions: 250 g/ha active ingredient, observed on 19th to 24th day
In short: (§1)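 Upland soil pots sown with crop and weed seeds; next day wettable powder or emulsifiable concentrate at prescribed active-ingredient amounts, diluted to 500 L/ha water, sprayed onto soil. Growth inhibition scored visually 19–24 days later, 0 (as untreated) to 100% (complete kill).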

[1] = tested on: greenfoxtail (Setaria viridis L.); test: Test Example 1: foliar treatment, growth inhibition rate, greenfoxtail; type: in vivo; conditions: visually observed 17th to 23rd day after application
In short: (§2)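 Visual growth inhibition rating, 0% (as untreated) to 100% (complete kill), taken 17–23 d after foliar spray. Compound was formulated as wettable powder or EC, diluted to 500 L/ha water with 0.1 vol % agricultural spreader, and applied to pot-grown seedlings of corn (2.0–3.5 leaf), greenfoxtail (1.0–3.0), rice (1.0–2.5) and wheat (1.7–3.4).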

soybean = test: Test Example 2: soil application on the day after sowing, growth inhibition rate, soybean; type: in vivo, Glycine max Merr.; conditions: 250 g/ha active ingredient, observed on 19th to 24th day
In short: as §1

[2] = tested on: soybean (Glycine max Merr.); test: Test Example 1: foliar treatment, growth inhibition rate, soybean; type: in vivo; conditions: visually observed 17th to 23rd day after application
In short: (§3)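 Visual scoring of growth inhibition, 0% (untreated) to 100% (complete kill), on days 17–23 following post-emergence spray of formulated compound in water (500 L/ha, 0.1 vol % spreader); plants treated at set leaf stages, e.g. corn 2.0–3.5, wheat 1.7–3.4.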

rice = test: Test Example 2: soil application on the day after sowing, growth inhibition rate, rice; type: in vivo, Oryza sativa L.; conditions: 250 g/ha active ingredient, observed on 19th to 24th day
In short: as §1

corn = test: Test Example 2: soil application on the day after sowing, growth inhibition rate, corn; type: in vivo, Zea mays L.; conditions: 250 g/ha active ingredient, observed on 19th to 24th day
In short: as §1

[3] = tested on: barnyardgrass (Echinochloa crus-galli L.); test: Test Example 1: foliar treatment, growth inhibition rate, barnyardgrass; type: in vivo; conditions: visually observed 17th to 23rd day after application
In short: (§4)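 Post-emergence foliar spray, pot test; WP/EC formulation in water at 500 L/ha, + 0.1 vol % spreader; leaf stage at treatment: corn 2.0–3.5, green foxtail 1.0–3.0, rice 1.0–2.5, wheat 1.7–3.4; visual % inhibition at 17–23 DAT (0 = untreated, 100 = dead).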

[4] = tested on: velvetleaf (Abutilon theophrasti MEDIC.); test: Test Example 1: foliar treatment, growth inhibition rate, velvetleaf; type: in vivo; conditions: visually observed 17th to 23rd day after application
In short: as §4

corn (Zea mays L.) = test: Test Example 1: foliar treatment, growth inhibition rate, corn; type: in vivo; conditions: visually observed 17th to 23rd day after application
In short: as §2

wheat = test: Test Example 2: soil application on the day after sowing, growth inhibition rate, wheat; type: in vivo, Triticum spp.; conditions: 250 g/ha active ingredient, observed on 19th to 24th day
In short: as §1

rice (Oryza sativa L.) = test: Test Example 1: foliar treatment, growth inhibition rate, rice; type: in vivo; conditions: visually observed 17th to 23rd day after application
In short: as §2

prickly sida = test: Test Example 2: soil application on the day after sowing, growth inhibition rate, prickly sida; type: in vivo, Sida spinosa L.; conditions: 250 g/ha active ingredient, observed on 19th to 24th day
In short: as §1

[5] = tested on: redroot pigweed (Amaranthus retroflexus L.); test: Test Example 1: foliar treatment, growth inhibition rate, redroot pigweed; type: in vivo; conditions: visually observed 17th to 23rd day after application
In short: as §3

greenfoxtail = test: Test Example 2: soil application on the day after sowing, growth inhibition rate, greenfoxtail; type: in vivo, Setaria viridis L.; conditions: 250 g/ha active ingredient, observed on 19th to 24th day
In short: as §1

[6] = tested on: prickly sida (Sida spinosa L.); test: Test Example 1: foliar treatment, growth inhibition rate, prickly sida; type: in vivo; conditions: visually observed 17th to 23rd day after application
In short: as §3

wheat (Triticum spp.) = test: Test Example 1: foliar treatment, growth inhibition rate, wheat; type: in vivo; conditions: visually observed 17th to 23rd day after application
In short: as §2

velvetleaf = test: Test Example 2: soil application on the day after sowing, growth inhibition rate, velvetleaf; type: in vivo, Abutilon theophrasti MEDIC.; conditions: 250 g/ha active ingredient, observed on 19th to 24th day
In short: as §1

crabgrass = test: Test Example 2: soil application on the day after sowing, growth inhibition rate, crabgrass; type: in vivo, Digitaria sanguinalis L.; conditions: 250 g/ha active ingredient, observed on 19th to 24th day
In short: as §1

redroot pigweed = test: Test Example 2: soil application on the day after sowing, growth inhibition rate, redroot pigweed; type: in vivo, Amaranthus retroflexus L.; conditions: 250 g/ha active ingredient, observed on 19th to 24th day
In short: as §1

[7] = tested on: crabgrass (Digitaria sanguinalis L.); test: Test Example 1: foliar treatment, growth inhibition rate, crabgrass; type: in vivo; conditions: visually observed 17th to 23rd day after application
In short: as §3

Compound | Growth inhibition rate (%) Barnyardgrass (barnyardgrass) [%] | Growth inhibition rate (%) Greenfoxtail ([1]; 31 g/ha active ingredient) [%] | Growth inhibition rate (%) Soybean (soybean) [%] | Growth inhibition rate (%) Soybean ([2]; 31 g/ha active ingredient) [%] | Growth inhibition rate (%) Rice (rice) [%] | Growth inhibition rate (%) Corn (corn) [%] | Growth inhibition rate (%) Barnyardgrass ([3]; 31 g/ha active ingredient) [%] | Growth inhibition rate (%) Velvetleaf ([4]; 31 g/ha active ingredient) [%] | Growth inhibition rate (%) Corn (corn (Zea mays L.); 31 g/ha active ingredient) [%] | Growth inhibition rate (%) Wheat (wheat) [%] | Growth inhibition rate (%) Rice (rice (Oryza sativa L.); 31 g/ha active ingredient) [%] | Growth inhibition rate (%) Prickly sida (prickly sida) [%] | Growth inhibition rate (%) redroot pigweed ([5]; 31 g/ha active ingredient) [%] | Growth inhibition rate (%) Greenfoxtail (greenfoxtail) [%] | Growth inhibition rate (%) Prickly sida ([6]; 31 g/ha active ingredient) [%] | Growth inhibition rate (%) Wheat (wheat (Triticum spp.); 31 g/ha active ingredient) [%] | Growth inhibition rate (%) Velvetleaf (velvetleaf) [%] | Growth inhibition rate (%) Crabgrass (crabgrass) [%] | Growth inhibition rate (%) redroot pigweed (redroot pigweed) [%] | Growth inhibition rate (%) Crabgrass ([7]; 31 g/ha active ingredient) [%] | other results
CCCOC(=O)c1c(S(C)(=O)=O)ccc(C(=O)c2cnn(CC)c2OC(=O)SCC)c1Cl [compound 60] | 100 | 60 | 20 | 50 | 40 | 0 | 95 | 70 | 0 | 0 | 70 | 70 | 80 | 60 | 70 | 0 | 60 | 100 | 95 | 90 | –
CCSC(=O)Oc1c(C(=O)c2ccc(S(C)(=O)=O)c(COCC(F)(F)F)c2Cl)cnn1C [compound 70] | 70 | 100 | 0 | 80 | 40 | 0 | 100 | 80 | 30 | 0 | 70 | 65 | 100 | 50 | 70 | 0 | 70 | 80 | 100 | 100 | –
CCSC(=O)Oc1c(C(=O)c2ccc(S(C)(=O)=O)c(OCC3CCCO3)c2C)cnn1C (stereo not drawn) [compound 211] | 60 | 70 | 0 | 98 | 50 | 0 | 70 | 90 | 20 | 0 | 50 | 70 | 90 | 60 | 20 | 0 | 40 | 98 | 100 | 70 | –
COC(=O)c1c(S(C)(=O)=O)ccc(C(=O)c2cnn(C)c2OC(=O)SC(C)(C)C)c1C [compound 90] | 100 | 95 | 30 | 80 | 100 | 10 | 80 | 95 | 0 | 0 | 40 | 98 | 80 | 100 | 75 | 0 | 100 | 100 | 100 | 60 | –
CCCOc1c(S(C)(=O)=O)ccc(C(=O)c2cnn(C)c2OC(=O)SCC)c1C [compound 66] | 80 | 100 | 0 | 98 | 90 | 0 | 95 | 95 | 0 | 0 | 60 | 90 | 95 | 40 | 75 | 10 | 40 | 90 | 95 | 98 | –
COC(=O)c1c(S(C)(=O)=O)ccc(C(=O)c2cnn(C)c2OC(=O)SC)c1C [Compound No. 3] | 60 | 100 | 40 | 95 | 95 | 0 | 95 | 95 | 60 | 0 | 100 | 95 | 90 | 60 | 90 | 50 | 70 | 100 | 100 | 95 | –
CCSC(=O)Oc1c(C(=O)c2ccc(S(C)(=O)=O)c(SC)c2Cl)cnn1C [compound 212] | 50 | – | 0 | – | 0 | 0 | – | – | – | 0 | – | 50 | – | 0 | – | – | 0 | 40 | 80 | – | Growth inhibition rate (%) Greenfoxtail ([1]; 63 g/ha active ingredient): 60%; Growth inhibition rate (%) Soybean ([2]; 63 g/ha active ingredient): 90%; Growth inhibition rate (%) Barnyardgrass ([3]; 63 g/ha active ingredient): 100%; Growth inhibition rate (%) Velvetleaf ([4]; 63 g/ha active ingredient): 60%; Growth inhibition rate (%) Corn (corn (Zea mays L.); 63 g/ha active ingredient): 0%; Growth inhibition rate (%) Rice (rice (Oryza sativa L.); 63 g/ha active ingredient): 30%; Growth inhibition rate (%) redroot pigweed ([5]; 63 g/ha active ingredient): 100%; Growth inhibition rate (%) Prickly sida ([6]; 63 g/ha active ingredient): 40%; Growth inhibition rate (%) Wheat (wheat (Triticum spp.); 63 g/ha active ingredient): 0%; Growth inhibition rate (%) Crabgrass ([7]; 63 g/ha active ingredient): 50%
CCCSC(=O)Oc1c(C(=O)c2ccc(S(C)(=O)=O)c(OCCOC)c2C)cnn1C [compound 219] | 100 | 100 | 0 | 100 | 95 | 0 | 100 | 100 | 0 | 0 | 80 | 80 | 100 | 100 | 70 | 0 | 100 | 100 | 100 | 100 | –
CCSC(=O)Oc1c(C(=O)c2ccc(S(C)(=O)=O)c(CC#N)c2C)cnn1C [compound 83] | 80 | 100 | 0 | 95 | 50 | 0 | 100 | 95 | 0 | 0 | 80 | 70 | 80 | 40 | 70 | 0 | 40 | 95 | 90 | 100 | –
